Tested on: A549-GFP cells (A549/lung cancer cells)
Experiment: Proliferation assay (fluorescence intensity) of A549-GFP cells treated with MLPC and/or doxorubicin
Type: cell-based, human
Details: doxorubicin alone 0.8 μM or 4 μM, 72 hours, FIG. 7
Protocol: Single cell suspensions of A549-GFP, A549-LG, and SKOV3-LG were obtained after trypsinization of the monolayer cultures and counted by trypan blue exclusion. In brief, the cells were seeded at various densities of 1000, 2000, 4000, 5000, 6000, and 10.000 cells into black microliter plates (Nunc) and incubated in 200 microliter culture medium for 3 days. Then the supernatant of cell culture were replaced by 100 microliter Dulbecco's Phosphate buffered saline (DPBS). The fluorescence intensity was determined by excitation and emission on fluorescent microplate reader (BMG).
Single cell suspensions of A549-GFP and SKOV3-LG were obtained by trypsinization of the monolayer cultures and counted by trypan blue exclusion. The proliferation of cancer cells, in particular the downregulation of proliferation, was evaluated by individual, simultaneous, two-stage models. MLPC and a chemotherapeutic drug were added simultaneously to A549-GFP and SKOV3-LG cells for 3 days. In a two-stage experiment, in the first stage MLPC were added to A549-GFP and SKOV3-LG cells for 3 days. In the second stage, supernatants of cells were removed and a chemotherapeutic drug was added for 3 days. […] Fluorescence intensities were determined to evaluate the effect on cancer cell proliferation of the various treatments and control.

SMILES: COc1cccc2c1C(=O)c1c(O)c3c(c(O)c1C2=O)C[C@@](O)(C(=O)CO)C[C@@H]3O[C@H]1C[C@H](N)[C@H](O)[C@H](C)O1 [doxorubicin]
- cancer cell proliferation (relative fluorescence intensity): significantly reduced cancer cell proliferation
